ChEMBL document CHEMBL6092194, “Development of membrane-targeting chalcone derivatives as antibacterial agents against multidrug-resistant bacteria” (Eur J Med Chem, 2024)
Activity calls are given as the source filed them. The calls are words filed in the database; no cut-off is given here.

Key:
Escherichia coli [1] = experiment: Antibacterial activity against Escherichia coli ATCC25922 infected in sepsis mouse model assessed as log reduction in bacterial load in liver at 5 mg/kg pre-infected with bacteria for 1 hrs followed by compound administration at 12 hrs interval for 2 days relative to control; assay type: functional; settings: time 2 day
Staphylococcus aureus = experiment: Induction of morphological changes in Staphylococcus aureus ATCC43300 assessed as disruption of cell membrane by scanning electron microscopic analysis; assay type: functional, organism-based
Escherichia coli [2] = experiment: Antibacterial activity against Escherichia coli ATCC25922 infected in sepsis mouse model assessed as reduction in kidney damage at 5 to 10 mg/kg pre-infected with bacteria for 1 hrs followed by compound administration at 12 hrs interval for 2 days by H and E staining based analysis; assay type: functional, organism-based; settings: dose 5-10 mg/kg, time 2.0 day
Escherichia coli [3] = experiment: Bactericidal activity against Escherichia coli ATCC25922 assessed as log reduction in bacterial colony at 8 times of MIC measured after 6 hrs by time-kill kinetics assay; assay type: functional
Bacillus subtilis = experiment: Antibacterial activity against penicillin-susceptible Bacillus subtilis ATCC9372 by broth microdilution assay; assay type: functional
Cell membrane = experiment: Disruption of cell membrane in Staphylococcus aureus ATCC43300 assessed as increase in protein leakage; assay type: subcellular; settings: dose 1-8 µg/ml

CCCCCCOc1cc[n+](CCCOc2ccc(/C=C/C(=O)c3ccc(OCCC[n+]4ccc(OCCCCCC)cc4)cc3)cc2)cc1.[Br-].[Br-]
log(activity) (Escherichia coli [1]): 2.52 | Activity (Staphylococcus aureus): Active | Activity (Escherichia coli [2]): Active | log(activity) (Escherichia coli [3]): 8.31 | MIC (Bacillus subtilis): 1 µg/mL | Activity (Cell membrane): Dose-dependent-effect
